The values below come from patent US20250354111A1, “BOVINE SEX-SORTED SPERM SORTING SOLUTION MEDIATED BY SMALL MOLECULE COMPOUND AND ITS APPLICATION” (Inner Mongolia University, priority 2024, published 2025).

In this assay the test system is bovine sperm. In words: Effect of creatine concentration on sorting of X and Y sperm in sorting solution with 24e drug (Example 2). Type of assay: cell-based. As to conditions: creatine 500 μM with 24e drug 0.3 μM; 37° C., 60 min; 6x107 sperm/mL. The procedure:
Based on the exploration in Example 1 that the range of 0.27 μM-0.33 μM is the optimal concentration range for the 24e drug to sort bovine sperm, the effect of creatine on the sperm sorting effect was examined by incubating bovine sperm with creatine added to the sorting solution with a 24e drug concentration of 0.3 μM.
Fresh bovine semen provided by the Grassland Livestock Germplasm Innovation and Breeding Base of Inner Mongolia University was used, washed with in vitro fertilization solution, and after dilution, the sperm density was 6x107 sperm/mL. At 37° C., the 24e drug was added to the sperm sorting protection solution to make the final concentration of the 24e drug 0.3 μM. On this basis, creatine was added, and bovine sperm was incubated for 60 min. The amounts of creatine used were 0 μM (control group), 200 μM, 300 μM, 400 μM, 500 µM, and 600 μM. The sorting effect of sperm at each creatine concentration was obtained by analyzing the sperm in the upper and lower layers, as shown in FIG. 2. […] In the upper layer of sperm, the percentage of X sperm is 22%, and the percentage of Y sperm is 78%. Creatine can enhance the activity of sperm, so that Y sperm floats up faster, while the activity of X sperm is inhibited by the 24e drug and sinks, making the stratification more obvious and improving the sorting efficiency. When the sperm density is 6x10^7 sperm/mL, the concentration of the 24e drug is 0.27 μM-0.33 μM, and the creatine concentration is 500 μM-600 μM, the sorting effect on bovine sperm is the best.

`CN(CC(=O)O)C(=N)N` [creatine]: the “percentage of X sperm in the lower layer of sorted sperm” value was found to be 70.33%, the “percentage of X sperm in the upper layer of sperm” value worked out at 22%, the “percentage of Y sperm in the lower layer of sorted sperm” value is 29.67% and the “percentage of Y sperm in the upper layer of sperm” value amounted to 78%.
